From PubChem BioAssay AID330 (DTP/NCI, 2004)
Several values for one entry are separate records, joined by “and”; a condition that tells them apart may be missing. Equal values may be shown once. Inconclusive results and toxic doses are left out. The calls were made as follows: active = survival T/C of 150% or more; inactive = T/C below 125% in these data.

System: P388 leukemia ip, CD2F1 mice, survival T/C
Test: NCI In Vivo Anticancer Drug Screen. Data for tumor model P388 Leukemia (intraperitoneal) in CD2F1 (CDF1) mice
Conditions: endpoint: median survival time, higher = longer survival
Method in brief: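 Mice carrying the transplanted tumor received test compound or vehicle. Survival was recorded in each group, and the value is the treated-group measurement divided by that of the vehicle-treated control group.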

[1] = dose: 50.0 mg/kg/injection, schedule: Q01DX005 (ip), vehicle: saline with Tween-80
[2] = dose: 100.0 mg/kg/injection, schedule: Q01DX005 (ip), vehicle: saline with Tween-80
[3] = dose: 50.0 mg/kg/injection, schedule: Q04DX003 (ip), vehicle: saline
[4] = dose: 100.0 mg/kg/injection, schedule: Q04DX003 (ip), vehicle: saline
[5] = dose: 100.0 mg/kg/injection, schedule: Q01DX001 (ip), vehicle: saline with Tween-80
[6] = dose: 200.0 mg/kg/injection, schedule: Q01DX001 (ip), vehicle: saline with Tween-80
[7] = dose: 400.0 mg/kg/injection, schedule: Q01DX001 (ip), vehicle: saline with Tween-80
[8] = dose: 50.0 mg/kg/injection, schedule: Q01DX009 (ip), vehicle: Klucel (hydroxypropylcellulose) (HPC)
[9] = dose: 100.0 mg/kg/injection, schedule: Q01DX009 (ip), vehicle: Klucel (hydroxypropylcellulose) (HPC)
[10] = dose: 200.0 mg/kg/injection, schedule: Q01DX009 (ip), vehicle: Klucel (hydroxypropylcellulose) (HPC)
[11] = dose: 50.0 mg/kg/injection, schedule: Q01DX005 (ip), vehicle: Klucel (hydroxypropylcellulose) (HPC)
[12] = dose: 50.0 mg/kg/injection, schedule: Q01DX009 (ip), vehicle: saline
[13] = dose: 100.0 mg/kg/injection, schedule: Q01DX009 (ip), vehicle: saline

Measured: T/C

O=C1C=C2C=CC3CC2(O1)C1CCCCN31 (centres undefined)
inactive: dose: 6.25 mg/kg/injection, schedule: Q04DX002 (ip), vehicle: saline with Tween-80 113 % of control | dose: 10.0 mg/kg/injection, schedule: Q01DX010 (ip), vehicle: saline 90 % of control | dose: 12.5 mg/kg/injection, schedule: Q04DX002 (ip), vehicle: saline with Tween-80 106 % of control | dose: 20.0 mg/kg/injection, schedule: Q01DX010 (ip), vehicle: saline 90 % of control | dose: 25.0 mg/kg/injection, schedule: Q01DX010 (ip), vehicle: saline 90 % of control and 110 % of control | dose: 25.0 mg/kg/injection, schedule: Q04DX002 (ip), vehicle: saline with Tween-80 106 % of control | dose: 50.0 mg/kg/injection, schedule: Q01DX010 (ip), vehicle: saline 100 % of control and 110 % of control | dose: 100.0 mg/kg/injection, schedule: Q01DX010 (ip), vehicle: saline 100 % of control and 120 % of control

O=[N+]([O-])c1ccc(-c2c[s+]cs2)cc1
inactive: dose: 6.25 mg/kg/injection, schedule: Q01DX009 (ip), vehicle: distilled water + Tween-80 101 % of control | dose: 12.5 mg/kg/injection, schedule: Q01DX009 (ip), vehicle: distilled water + Tween-80 101 % of control | dose: 25.0 mg/kg/injection, schedule: Q01DX009 (ip), vehicle: distilled water + Tween-80 108 % of control | dose: 50.0 mg/kg/injection, schedule: Q01DX009 (ip), vehicle: distilled water + Tween-80 95 % of control | dose: 100.0 mg/kg/injection, schedule: Q01DX009 (ip), vehicle: distilled water + Tween-80 104 % of control

CCOC(=O)N=C=S
inactive: dose: 50.0 mg/kg/injection, schedule: Q01DX009 (ip), vehicle: saline with Tween-80 108 % of control | dose: 100.0 mg/kg/injection, schedule: Q01DX009 (ip), vehicle: saline with Tween-80 108 % of control

c1cc(C2=NCCN2)ccc1Nc1ccc(-c2cc3ccc(C4=NCCN4)cc3[nH]2)cc1
active: dose: 3.75 mg/kg/injection, schedule: Q01DX005 (ip), vehicle: Klucel (hydroxypropylcellulose) (HPC) 150 % of control and 165 % of control | dose: 7.5 mg/kg/injection, schedule: Q01DX005 (ip), vehicle: Klucel (hydroxypropylcellulose) (HPC) 154 % of control and 177 % of control

COc1cccc(N=Nc2c(-c3ccccc3)nn(C(N)=S)c2C)c1
inactive: [1] 100 % of control | [2] 89 % of control | dose: 200.0 mg/kg/injection, schedule: Q01DX005 (ip), vehicle: saline with Tween-80 91 % of control

N#CC(C#N)C(=O)c1ccccc1
inactive: [3] 103 % of control | [4] 102 % of control | dose: 200.0 mg/kg/injection, schedule: Q04DX003 (ip), vehicle: saline 95 % of control | dose: 400.0 mg/kg/injection, schedule: Q04DX003 (ip), vehicle: saline 95 % of control

O=C(O)CSc1nnc(C2CCC(=O)N2Cc2ccccc2)o1 (centres undefined)
inactive: [5] 99 % of control | [6] 101 % of control | [7] 95 % of control

O=C(NC(=O)c1ccccc1F)Nc1ccc(C(F)(F)F)cc1
inactive: [8] 102 % of control | [9] 101 % of control | [10] 99 % of control

O=C(N/N=C/c1ccc(O)c(S(=O)(=O)O)c1)C(=O)N/N=C/c1ccc(O)c(S(=O)(=O)O)c1
inactive: [8] 101 % of control | [9] 108 % of control | [10] 108 % of control

CC(=O)Oc1cccnc1C(C#N)C#N
inactive: dose: 12.5 mg/kg/injection, schedule: Q01DX005 (ip), vehicle: saline with Tween-80 108 % of control | dose: 25.0 mg/kg/injection, schedule: Q01DX005 (ip), vehicle: saline with Tween-80 94 % of control

NC(=O)NN=C(C1CC1)C1CC1
inactive: dose: 3.12 mg/kg/injection, schedule: Q01DX005 (ip), vehicle: Klucel (hydroxypropylcellulose) (HPC) 115 % of control | dose: 6.25 mg/kg/injection, schedule: Q01DX005 (ip), vehicle: Klucel (hydroxypropylcellulose) (HPC) 98 % of control | dose: 12.5 mg/kg/injection, schedule: Q01DX005 (ip), vehicle: Klucel (hydroxypropylcellulose) (HPC) 104 % of control | [11] 99 % of control

CCOC(=O)C1=CNN=CC12C(=O)C(C(=O)OCC)CC2C(=O)OCC (centres undefined)
inactive: dose: 100.0 mg/kg/injection, schedule: Q04DX002 (ip), vehicle: saline with Tween-80 96 % of control | dose: 200.0 mg/kg/injection, schedule: Q04DX002 (ip), vehicle: saline with Tween-80 93 % of control | dose: 400.0 mg/kg/injection, schedule: Q04DX002 (ip), vehicle: saline with Tween-80 92 % of control

C=CCN(CC=C)CC(C)(O)CNc1cc(OC)cc2cccnc12 (centres undefined)
inactive: dose: 50.0 mg/kg/injection, schedule: Q01DX005 (ip), vehicle: saline 107 % of control | dose: 100.0 mg/kg/injection, schedule: Q01DX005 (ip), vehicle: saline 101 % of control

COc1cccc2c1C(=O)c1c(O)c3c(c(O)c1C2=O)C[C@@](O)(/C(C)=N/N1CCCCC1)C[C@@H]3OC1CC(N)C(O)C(C)O1 (some centres undefined)
inactive: dose: 5.0 mg/kg/injection, schedule: Q01DX009 (ip), vehicle: saline 101 % of control
active: dose: 1.25 mg/kg/injection, schedule: Q01DX009 (ip), vehicle: saline 156 % of control | dose: 2.5 mg/kg/injection, schedule: Q01DX009 (ip), vehicle: saline 160 % of control

N#Cc1cnc(N)[nH]c1=O
inactive: dose: 15.0 mg/kg/injection, schedule: Q01DX005 (ip), vehicle: Klucel (hydroxypropylcellulose) (HPC) 101 % of control | dose: 30.0 mg/kg/injection, schedule: Q01DX005 (ip), vehicle: Klucel (hydroxypropylcellulose) (HPC) 97 % of control | dose: 60.0 mg/kg/injection, schedule: Q01DX005 (ip), vehicle: Klucel (hydroxypropylcellulose) (HPC) 98 % of control and 99 % of control

CC1=C[C@@H]2c3cccc4c3c(cn4C)C[C@H]2N(C)C1
inactive: [1] 99 % of control | [2] 100 % of control

COc1cc(C=Nc2cccc(F)c2)ccc1N(CCCl)CCCl
inactive: dose: 0.25 mg/kg/injection, schedule: Q01DX009 (ip), vehicle: other 109 % of control | dose: 0.5 mg/kg/injection, schedule: Q01DX009 (ip), vehicle: other 113 % of control | dose: 1.0 mg/kg/injection, schedule: Q01DX009 (ip), vehicle: other 122 % of control

Cc1nn(C(=O)c2ccncc2)c(C)c1N=Nc1cccc2ccccc12
inactive: [8] 96 % of control | [9] 99 % of control | [10] 96 % of control

[NH-]CC[N-]CCO.[NH-]CC[N-]CCO.[NH-]CC[N-]CCO.[Ni]
inactive: dose: 6.25 mg/kg/injection, schedule: Q01DX005 (ip), vehicle: saline 93 % of control | dose: 12.5 mg/kg/injection, schedule: Q01DX005 (ip), vehicle: saline 98 % of control | dose: 25.0 mg/kg/injection, schedule: Q01DX005 (ip), vehicle: saline 107 % of control

COc1ccc(-c2cc(-c3ccccc3)[nH]c(=O)c2N(C)C)cc1
inactive: dose: 25.0 mg/kg/injection, schedule: Q01DX009 (ip), vehicle: Klucel (hydroxypropylcellulose) (HPC) 90 % of control | [8] 89 % of control | [9] 89 % of control | [10] 86 % of control

COCCCN1C(=O)/C(=C/c2ccccn2)SC1=S
inactive: [12] 97 % of control | [13] 96 % of control | dose: 200.0 mg/kg/injection, schedule: Q01DX009 (ip), vehicle: saline 96 % of control

C/C(=N\NC(=S)NNC(=S)N(C)c1ccccc1)c1ccccc1
inactive: dose: 25.0 mg/kg/injection, schedule: Q01DX005 (ip), vehicle: Klucel (hydroxypropylcellulose) (HPC) 98 % of control | [11] 93 % of control | dose: 100.0 mg/kg/injection, schedule: Q01DX005 (ip), vehicle: Klucel (hydroxypropylcellulose) (HPC) 94 % of control | dose: 200.0 mg/kg/injection, schedule: Q01DX005 (ip), vehicle: Klucel (hydroxypropylcellulose) (HPC) 91 % of control

COC(=O)C(CC=C(C)C)(CC=C(C)C)C(C)=O
inactive: dose: 100.0 mg/kg/injection, schedule: Q04DX002 (ip), vehicle: saline 104 % of control | dose: 200.0 mg/kg/injection, schedule: Q04DX002 (ip), vehicle: saline 100 % of control | dose: 400.0 mg/kg/injection, schedule: Q04DX002 (ip), vehicle: saline 113 % of control

CC(C)N(CCCOC(=O)c1ccc(N)cc1)C(C)C
inactive: dose: 25.0 mg/kg/injection, schedule: Q01DX009 (ip), vehicle: saline 100 % of control | dose: 25.0 mg/kg/injection, schedule: Q04DX003 (ip), vehicle: saline 100 % of control | [12] 100 % of control | [3] 91 % of control | [13] 100 % of control | [4] 100 % of control

CCSc1cccc2nnc(C(C)(C)C)n12
inactive: [5] 98 % of control | [6] 99 % of control | [7] 97 % of control
